Tests used:
[1] = target: anti-β endorphin monoclonal antibody; conditions: cited from earlier work
[2] = target: Mab 1 (monoclonal antibody to hGH); assay: Binding of Mab 1 to hGH and hGH phagemid particles (ELISA); conditions: read-out: IC50 (concentration to give half-maximal binding to the Mab)
Protocol: (§1) After 2 hours at room temperature (rt), the plates were washed well and the indicated Mab (Cunningham et al. supra) was added at 1 μg/ml in buffer A for 2 hours at rt. Following washing, horseradish peroxidase conjugated goat anti-mouse IgG antibody was bound at rt for 1 hour. After a final wash, the peroxidase activity was assayed with the substrate, o-phenylenediamine.

[3] = target: Mab 2 (monoclonal antibody to hGH); assay: Binding of Mab 2 to hGH and hGH phagemid particles (ELISA); conditions: read-out: IC50 (concentration to give half-maximal binding to the Mab)
Protocol: as §1

[4] = target: Mab 3 (monoclonal antibody to hGH); assay: Binding of Mab 3 to hGH and hGH phagemid particles (ELISA); conditions: read-out: IC50 (concentration to give half-maximal binding to the Mab)
Protocol: as §1

[5] = target: Mab 4 (monoclonal antibody to hGH); assay: Binding of Mab 4 to hGH and hGH phagemid particles (ELISA); conditions: read-out: IC50 (concentration to give half-maximal binding to the Mab)
Protocol: as §1

[6] = target: Mab 5 (monoclonal antibody to hGH); assay: Binding of Mab 5 to hGH and hGH phagemid particles (ELISA); conditions: read-out: IC50 (concentration to give half-maximal binding to the Mab)
Protocol: as §1

[7] = target: Mab 6 (monoclonal antibody to hGH); assay: Binding of Mab 6 to hGH and hGH phagemid particles (ELISA); conditions: read-out: IC50 (concentration to give half-maximal binding to the Mab)
Protocol: as §1

[8] = target: Mab 7 (monoclonal antibody to hGH); assay: Binding of Mab 7 to hGH and hGH phagemid particles (ELISA); conditions: read-out: IC50 (concentration to give half-maximal binding to the Mab)
Protocol: as §1

[9] = target: Mab 8 (monoclonal antibody to hGH); assay: Binding of Mab 8 to hGH and hGH phagemid particles (ELISA); conditions: read-out: IC50 (concentration to give half-maximal binding to the Mab)
Protocol: as §1

Row | IC50 [2] | IC50 [3] | IC50 [4] | IC50 [5] | IC50 [6] | IC50 [7] | IC50 [8] | IC50 [9] | Substance | Kd [1]
1 |  |  |  |  |  |  |  |  | β-endorphin peptide: parent β-endorphin peptide sequence recognised by the anti-β endorphin monoclonal antibody | ~7 nM
2 | 0.4 nM | 0.04 nM | 0.2 nM | 0.1 nM | 0.2 nM | 0.07 nM | 0.1 nM | 0.1 nM | Human growth hormone [hGH] | 
